Test results: patent US9169241B2, “Quinolinyloxyphenylsulfonamides” (Max-Planck-Gesellschaft Zur Forderung der Wissenschaften …, priority 2009, dated 2015)
pIC50: −log10 of the molar value. Like-named read-outs stand apart in the source and are kept apart here.

Key:
Hs578T [1] = experiment: Matrigel outgrowth assay/branching assay; type: cell-based; details: Homo sapiens, Hs-578T; HS578T cell line; Table Ib; read-out: Total branching inhibition in Matrigel HS578T
Method in brief: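 Cells (5000/well) were seeded onto polymerized 3 mg/ml Matrigel with compound at 3.125, 1.56 or 0.78 μM, or DMSO. Imaging by inverted microscopy at 48, 72 and 96 h scored invasive branching. Only concentrations giving total branching inhibition counted as positive.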

viable cells in culture = experiment: Cell viability assay at 10 μM (CellTiter-Glo, Table VII); type: cell-based; details: compound 10 μM, 72 h;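 note: graded A 0-20%; B 21-40%; C 41-60%; D over 60% viable cells relative to DMSO control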
Method in brief: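 Viable cell number was measured with the CellTiter-Glo Luminescent Cell Viability Assay (Promega), following the manufacturer's protocol, which quantifies ATP as a marker of metabolically active cells. In 96-well plates, 1000 cells/well in 100 μl medium were exposed to compound at 10 μM, or to DMSO control, for 72 h. Values were calculated relative to DMSO-control ATP.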

C8161 = experiment: Apoptosis assay (Cellomics, nucleus condensation); type: cell-based; details: Homo sapiens, Table III, read-out: Apoptosis induction in C8161
Text: (§1) The Cellomics BioApplication (Thermo Fischer Cellomics Products, Pittsburgh, Pa.) is an automated image analysis algorithm that provides detailed analysis of phenotypes related to apoptosis. As one of the most prominent characteristics of apoptotics cell a nucleus condensation takes place. This can be measured fluorescence signal intensity using a CCD camera on fully automated microscope system. The Cellomics system is able to quantify the fluorescence intensity per single nucleus and calculates the variation of signal intensity in each cell population. […] Additionally the number of detected cell decreases normally in apoptotic cell populations. In detail 5000 cell per 96 well were labeled with DNA intercalating dye (Hoechst 33342, Sigma, Steinheim, Germany) to visualize the nucleus in a fluorescence microscope under live conditions. The apoptosis assay was performed 24 h and 48 h after addition of compound at concentrations 12.5 μM, 6.25 μM, 3.125 μM, 1.56 μM, 0.78 μM, 0.39 μM as well as DMSO control for 48 h.

U138 = experiment: Apoptosis assay (Cellomics, nucleus condensation); type: cell-based; details: Table III, read-out: Apoptosis induction in U138
Text: as §1

SF126 = experiment: Apoptosis assay (Cellomics, nucleus condensation); type: cell-based; details: Homo sapiens, SF-126, Table III, read-out: Apoptosis induction in SF126
Text: as §1

Hs578T [2] = experiment: Apoptosis assay (Cellomics, nucleus condensation); type: cell-based; details: Homo sapiens, Hs-578T, Table III, read-out: Apoptosis induction in Hs578T
Text: as §1

U118 = experiment: Apoptosis assay (Cellomics, nucleus condensation); type: cell-based; details: Table III, read-out: Apoptosis induction in U118
Text: as §1

SF763 = experiment: Apoptosis assay (Cellomics, nucleus condensation); type: cell-based; details: Table III, read-out: Apoptosis induction in SF763
Text: as §1

indicated cell line = experiment: Wound healing migration assay (Table IV); type: cell-based; details: compounds at 12.5, 6.25, 3.125 μM, 48 h-72 h
Description: This method mimics cell migration during wound healing in vivo. The basic steps involve creating a “wound” in a cell monolayer, capturing the images at the beginning and at regular intervals during cell migration to close the wound, and comparing the images to quantify the migration rate of the cells. In detail, 150000 cell/24 well have been seeded and allowed to form a monolayer overnight. Subsequently a “wound” or “scratch” has been performed with a 1000 μl pipette tip. The STDV of wound size is normally below 10% at time point t0. The assay was stopped by fixation with 0.05% Crystal violet/20% methanol when control scratches were closed. The assay was terminated between 48 h and 72 h depending on the migration potential of the indicated cell line. The “wounds” were visualized with a Zeiss Axiovert S100 microscope (Carl Zeiss UK, Welwyn Garden City, UK). The tested compounds were used at 12.5 μM, 6.25, 3.125 μM and DMSO control. IC50 values have been calculated as 50% wound size in between t0 and t48 or t72.

cells = experiment: Boyden chamber migration assay (Table VI); type: cell-based; details: Homo sapiens, Hs-578T, 16 h, Hs578T cells; 16 h migration
Description: The Boyden chamber assay is based on a chamber of two medium-filled compartments separated by a microporous membrane of 8 μM (Cell culture insert 8.0 μM pore size, BD Biosciences, Bedford, Mass.). The boyden chamber migration assays were carried out according to the supplier's instructions. In general, 20000 cells are placed in the upper compartment with medium containing 0% FCS plus 0.1% BSA and are allowed to migrate 16 h through the pores of the membrane into the lower compartment, which is filled with cell culture medium containing 10% FCS as chemotactic agents. The cells remaining in the insert were removed with a cotton swab, and the cells on the bottom of the filter were fixed and counted. (Zhang Y X, et al. AXL is a potential target for therapeutic intervention in breast cancer progression. Cancer Res. 2008; 68:1905-15).

tumor cell = experiment: Matrigel outgrowth assay/branching assay (Table Va); type: cell-based
Description: The Matrigel outgrowth assay is based on the ability of tumor cell to penetrate a solid gel of extracellular matrix proteins mimicking the metastasis formation in vivo. While cells with low invasive potential appear as roundish cell or cell cluster, cells with high invasive potential penetrate the Matrigel and form polymorphic structures. In detail 65 μl of Matrigel matrix (Matrigel™ Matrix, BD Biosciences, Bedford, Mass., USA) with a concentration of 3 mg/ml have been polymerized in 96 well plates for 1 h at 37° C. Subsequently 5000 cell/well were seeded into each well containing cell culture medium and indicated compound with concentrations of 3.125 μM, 1.56 μM and 0.78 μM as well as DMSO control. After 48 h, 72 h and 96 h images of cell were taken on an inverted microscope using a 5× objective (Zeiss Axiovert S100 microscope Carl Zeiss UK, Welwyn Garden City, UK). Only compound concentrations were total branching inhibition was evident were accounted as positive. Method was used as previously described, with some modifications (Thompson E W, et al. Association of increased basement membrane invasiveness with absence of estrogen receptor and expression of vimentin in human breast cancer cell lines. J Cell Physiol 1992; 150:534-44).

[3] = Homo sapiens, HCT-116, HCT116 def, read-out: percentage (%) of viable cells HCT 116def
[4] = Homo sapiens, HCT-116, HCT116 wt, read-out: percentage (%) of viable cells HCT 116wt
[5] = Homo sapiens, HT-29, HT29, read-out: percentage (%) of viable cells HT29
[6] = Homo sapiens, NCI-H358, H358, read-out: percentage (%) of viable cells H358
[7] = Homo sapiens, NCI-H1650, H1650, read-out: percentage (%) of viable cells H1650
[8] = Homo sapiens, NCI-H1666, H1666, read-out: percentage (%) of viable cells H1666
[9] = Homo sapiens, NCI-H1975, H1975, read-out: percentage (%) of viable cells H1975
[10] = Homo sapiens, NCI-H1993, H1993, read-out: percentage (%) of viable cells H1993
[11] = Homo sapiens, A549, read-out: percentage (%) of viable cells A549
[12] = Homo sapiens, HCC827, read-out: percentage (%) of viable cells HCC827
[13] = Homo sapiens, SW480, read-out: percentage (%) of viable cells SW480
[14] = RKO, read-out: percentage (%) of viable cells RKO
[15] = Homo sapiens, C8161 cells, read-out: IC50 Wound healing Assay C8161
[16] = Homo sapiens, C8161 cells, read-out: Total branching inhibition in Matrigel C8161
[17] = Homo sapiens, Hs-578T, Hs578T cells, read-out: Total branching inhibition in Matrigel Hs578T
[18] = U118 cells, read-out: Total branching inhibition in Matrigel U118
[19] = U138 cells, read-out: Total branching inhibition in Matrigel U138
[20] = SF763 cells, read-out: IC50 Wound healing Assay SF763

melting point [°C]	pIC50 (C8161)	pIC50 (U138)	pIC50 (SF126)	pIC50 (Hs578T [2])	pIC50 (U118)	pIC50 (SF763)	Compound	pIC50 (Hs578T [1])	viability at 10 µM (viable cells in culture; [3]) [%]	viability at 10 µM (viable cells in culture; [4]) [%]	viability at 10 µM (viable cells in culture; [5]) [%]	viability at 10 µM (viable cells in culture; [6]) [%]	viability at 10 µM (viable cells in culture; [7]) [%]	viability at 10 µM (viable cells in culture; [8]) [%]	viability at 10 µM (viable cells in culture; [9]) [%]	viability at 10 µM (viable cells in culture; [10]) [%]	viability at 10 µM (viable cells in culture; [11]) [%]	viability at 10 µM (viable cells in culture; [12]) [%]	viability at 10 µM (viable cells in culture; [13]) [%]	viability at 10 µM (viable cells in culture; [14]) [%]	also measured
145 to 146	≥ 4.90	≥ 4.90	≥ 4.90	≥ 4.90	≥ 4.90	≥ 4.90	COc1cc2c(Oc3ccc(NS(=O)(=O)c4cc(Cl)cc(Cl)c4OC)cc3F)ccnc2cc1OCCCN1CCCC(C)C1 (centres unmarked) [Example 75, 3,5-Dichloro-N-(3-fluoro-4-{6-methoxy-7-[3-(3-methyl-piperidin-1-yl)-propoxy]-quinolin-4-yloxy}-phenyl)-2-methoxy-benzenesulfonamide]	≥ 5.00	21 to 40	21 to 40	0 to 20	0 to 20	21 to 40	41 to 60	0 to 20	21 to 40	> 60	> 60	0 to 20	0 to 20	pIC50 (indicated cell line; [15]): 4.30 to 4.90; pIC50 (cells): ≥ 5.30; pIC50 (tumor cell; [16]): ≥ 5.30; pIC50 (tumor cell; [17]): ≥ 5.30; pIC50 (tumor cell; [18]): ≥ 5.30; pIC50 (tumor cell; [19]): 4.30 to 5.30
167 to 169	≥ 4.90	≥ 4.90	≥ 4.90	≥ 4.90	≥ 4.90	≥ 4.90	COc1cc(S(=O)(=O)Nc2ccc(Oc3ccnc4cc(OCCCN5CCN(C)CC5)c(OC)cc34)c(F)c2)ccc1F [Example 18, 4-Fluoro-N-(3-fluoro-4-{6-methoxy-7-[3-(4-methyl-piperazin-1-yl)-propoxy]-quinolin-4-yloxy}-phenyl)-3-methoxy-benzenesulfonamide]	≥ 5.00	0 to 20	0 to 20	0 to 20	0 to 20	21 to 40	21 to 40	0 to 20	0 to 20	21 to 40	21 to 40	0 to 20	0 to 20	pIC50 (indicated cell line; [15]): ≥ 4.90; pIC50 (indicated cell line; [20]): 4.30 to 4.90; pIC50 (cells): ≥ 5.30; pIC50 (tumor cell; [16]): ≥ 5.30; pIC50 (tumor cell; [17]): ≥ 5.30; pIC50 (tumor cell; [18]): ≥ 5.30; pIC50 (tumor cell; [19]): ≥ 5.30
73 to 75	≥ 4.90	≥ 4.90	≥ 4.90	≥ 4.90	≥ 4.90	≥ 4.90	COc1cc2c(Oc3ccc(NS(=O)(=O)c4ccccc4C)cc3F)ccnc2cc1OCCCN1CCN(C)CC1 [Example 28, N-(3-Fluoro-4-{6-methoxy-7-[3-(4-methyl-piperazin-1-yl)-propoxy]-quinolin-4-yloxy}-phenyl)-2-methyl-benzenesulfonamide]	4.60 to 5.00	21 to 40	21 to 40	21 to 40	0 to 20	21 to 40	41 to 60	21 to 40	21 to 40	21 to 40	21 to 40	0 to 20	0 to 20	pIC50 (indicated cell line; [15]): ≥ 4.90; pIC50 (indicated cell line; [20]): ≥ 4.90; pIC50 (cells): ≥ 5.30; pIC50 (tumor cell; [16]): ≥ 5.30; pIC50 (tumor cell; [17]): 4.30 to 5.30; pIC50 (tumor cell; [18]): ≥ 5.30; pIC50 (tumor cell; [19]): ≥ 5.30
106 to 110	≥ 4.90	≥ 4.90	4.30 to 4.90	≥ 4.90	≥ 4.90	≥ 4.90	COc1cc2c(Oc3ccc(NS(=O)(=O)c4ccc(Cl)cc4F)cc3F)ccnc2cc1OCCCN1CCN(C)CC1 [Example 27, 4-Chloro-2-fluoro-N-(3-fluoro-4-{6-methoxy-7-[3-(4-methyl-piperazin-1-yl)-propoxy]-quinolin-4-yloxy}-phenyl)-benzenesulfonamide]	≥ 5.00	0 to 20	0 to 20	21 to 40	0 to 20	41 to 60	41 to 60	21 to 40	0 to 20	> 60	> 60	0 to 20	0 to 20	pIC50 (indicated cell line; [15]): 4.30 to 4.90; pIC50 (indicated cell line; [20]): ≥ 4.90; pIC50 (cells): ≥ 5.30; pIC50 (tumor cell; [16]): ≥ 5.30; pIC50 (tumor cell; [17]): ≥ 5.30; pIC50 (tumor cell; [18]): ≥ 5.30; pIC50 (tumor cell; [19]): ≥ 5.30
